Experimental data published in patent publication US20130023563A1, “AMIDINOANILINE DERIVATIVE” (AJINOMOTO CO., INC., priority 2010, published 2013).
Structures can show the parent of a compound that is named as a salt.

Assays:
[1] = Evaluation of stability in plasma; assay type: in vitro ADME; conditions: human plasma, 37° C., read-out: T½
Protocol: Experimental Example 4 Evaluation of stability in plasma
To human plasma (495 μL) was added 5 μL from a solution of the test compound prepared to 200 μM (final drug solution concentration 2 μM), and the mixture was incubated at 37° C. At 0 min, 1 min, 2 min, 5 min and 10 min from the addition of the drug solution, 50 μL each was sampled, 0.1 mg/ml DDVP-containing acetonitrile (350 μL) was added, and the reaction was discontinued by blending them. After discontinuation of the reaction, a deproteination treatment was performed by a centrifugation operation at 15000 rpm for 5 min. The centrifugation supernatant (350 μL) was dried to solidness, concentrated, dissolved in aqueous solution (100 μL) of 20% acetonitrile and 0.1% formic acid and the mixture was subjected to the measurement by LC/MS/MS.
The half-life (T1/2) was calculated using initial 3rd-4th time points.

[2] = Evaluation of stability in liver S9 fraction; assay type: in vitro ADME; conditions: human liver S9 fraction 2 mg/mL, 2 μM, 37° C.
Protocol: Experimental Example 5 Evaluation of Stability in Liver S9 Fraction
Metabolism reaction mixed solution (0.1 mM EDTA-100 mM potassium phosphate buffer (pH 7.4), 2 mg/mL human liver S9 fraction, 0.5 mM oxidized nicotinamide adenine dinucleotide phosphate, 5 mM glucose-6-phosphoric acid, 1 unit/mL glucose-6-phosphate dehydrogenase) was pre-warmed at 37° C. for 5 min. After pre-warming, DMSO solution of the substrate was added such that the concentration of the final drug solution was 2 μM, and the metabolism reaction was started at 37° C. A given amount was sampled at 0 min, 5 min, 10 min and 30 min from the start of the reaction, 0.1 mg/mL dichlorvos-containing acetonitrile was added, and blended to discontinue the reaction. After discontinuation of the reaction, a deproteination treatment was performed by a centrifugation operation at 15000 rpm for 5 min. To the centrifugation supernatant was added 0.3% aqueous formic acid solution, admixed and the mixture was subjected to the measurement by LC/MS/MS. Then, as the residual ratio (%) at 30 min later, the ratio relative to the concentration at 0 min was calculated.

[3] = target: activated factor IIa (thrombin) (Homo sapiens, UniProt P00734); assay: Measurement of inhibitory activity against activated factor II (chromogenic substrate S-2238); assay type: biochemical; conditions: 0.125 U/ml thrombin, 0.1 mM S-2238, absorbance 405 nm; read-out: FIIa (pIC50) (converted)
Protocol: Experimental Example 2 Measurement of Inhibitory Activity Against Activated Factor II (FIIa, Thrombin)
(§1) Using a 96-well plate (#3396, Costar), 100 mM Tris-HCl buffer (130 μL) containing 0.02% Tween 20, 0.1% PEG6000 and 0.2M NaCl was admixed with 0.125 U/ml activated factor IIa (thrombin) (10 μL) and a test compound (10 μL) for 10 min and a color developing substrate 0.1 mM S-2238 (50 μL) was added. Using a microplate reader Benchmark Plus (BIO-RAD), the reaction rate was measured from the time course changes at absorbance 405 nm. Using the reaction rate of the control as 100%, the negative logarithmic value of the concentration that can suppress the reaction rate of the control by 50% was taken as the pIC50 value.

human plasma [4] = assay: Anti-blood coagulant activity, aPTT method, Sysmex CA-1500 (Experimental Example 3-1); assay type: biochemical; conditions: negative logarithmic value of the concentration that prolongs aPTT of the control 2 times
Protocol: Experimental Example 3-1 Measurement of Anti-Blood Coagulant Activity
Examples 1, 8, 9, 11, 13, 16-19 and 22 were measured according to the following method.
(§2) An aPTT measurement method using totally automatic blood coagulation time measuring apparatus Sysmex CA-1500 was used. A 10 mg/ml DDVP solution (DDVP standard product, Wako) (4 μL) and a test compound solution (20 μL) were placed in a sample tube (MS-18, Japan Medical Science), human plasma (standard human plasma for blood coagulation test, GCH-100A, Sysmex) (180 μL) was added and the mixture was used as a test sample. The test sample (50 μL) was incubated at 37° C. for 1 min, data fi APTT (rabbit brain-derived cephalin, DADE Behiring) (50 μL) was added, and the mixture was further incubated at 37° C. for 2 min. To the sample solution was added 0.02M calcium chloride (50 μL), and the time until plasma coagulation was automatically measured.
(§3) As the anti-blood coagulant activity, the negative logarithmic value of the concentration that prolongs aPTT of the control 2 times is shown as paPTT2.

FXa = FXa (Homo sapiens, UniProt P00742); assay: Measurement of inhibitory activity against activated factor X (chromogenic substrate S-2222); assay type: biochemical; conditions: 0.015 U/ml FXa, 0.2 mM S-2222, absorbance 405 nm; read-out: FXa (pIC50) (converted)
Protocol: Experimental Example 1 Measurement of Inhibitory Activity Against Activated Factor X Activity
as §1, with “mM Tris-HC1” for “mM Tris-HCl”, “with 0.015” for “with 0.125”, “U/ml FXa” for “U/ml activated factor IIa (thrombin)”, “substrate 0.2” for “substrate 0.1”, “mM S-2222” for “mM S-2238”

human plasma [5] = assay: Anti-blood coagulant activity, aPTT method, Sysmex Cs-2000i (Experimental Example 3-2); assay type: biochemical; conditions: negative logarithmic value of the concentration that prolongs aPTT of the control 2 times
Protocol: Experimental Example 3-2 Measurement of Anti-Blood Coagulant Activity
as §2, with “Cs-2000i” for “CA-1500”, “(8” for “(4”, “(40” for “(20”, “(360” for “(180”
as §3

Chain of FXa (P00742 235-488 limits assumed): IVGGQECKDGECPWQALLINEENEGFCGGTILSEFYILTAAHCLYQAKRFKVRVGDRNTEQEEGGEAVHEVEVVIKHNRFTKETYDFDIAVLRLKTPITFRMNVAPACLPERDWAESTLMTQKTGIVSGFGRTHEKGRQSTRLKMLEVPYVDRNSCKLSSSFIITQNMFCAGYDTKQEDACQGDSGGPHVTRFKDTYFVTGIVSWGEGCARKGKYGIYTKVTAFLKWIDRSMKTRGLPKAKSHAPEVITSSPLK
Chain of FXa (P00742 41-179 partner limits assumed): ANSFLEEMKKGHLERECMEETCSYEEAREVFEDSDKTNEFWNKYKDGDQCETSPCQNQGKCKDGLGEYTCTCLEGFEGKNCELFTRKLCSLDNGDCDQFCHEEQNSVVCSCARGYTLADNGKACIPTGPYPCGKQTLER

| Structure (SMILES) | half-life at 2 μM [1] [min] | residual ratio (%) of liver S9 fraction 30 min later [2] [%] | IC50 [3] [µM] | paPTT2 (human plasma [4]) | IC50 (FXa) [nM] | paPTT2 (human plasma [5]) |
| --- | --- | --- | --- | --- | --- | --- |
| N=C(N)c1cccc(N2CCC[C@@H]2COC(=O)c2ccc(C(=N)N3CCCC3)cc2)c1 [compound of Ex. 23, ((2R)-1-{3-[amino(imino)methyl]phenyl}pyrrolidin-2-yl)methyl 4-[imino(pyrrolidin-1-yl)methyl]benzoate 2 trifluoroacetate] | 0.2 | 76 | – | – | – | – |
| CC(=N)N1CCC(Oc2ccc(OC(=O)[C@H]3CCCCN3c3cccc(C(=N)N)c3)cc2)CC1 [compound of Ex. 19, 4-[(1-ethanimidoylpiperidin-4-yl)oxy]phenyl (2R)-1-{(3-[amino(imino)methyl]phenyl}piperidine-2-carboxylate 2 trifluoroacetate] | – | – | 3.39 | 6.89 | 7.76 | – |
| CC(=N)N1CCC(Oc2ccc(C(=O)OC[C@@H]3CCCN3c3cccc(C(=N)N)c3)cc2)CC1 [compound of Ex. 24, ((2S)-1-{3-[amino(imino)methyl]phenyl}pyrrolidin-2-yl)methyl 4-[(1-ethanimidoylpiperidin-4-yl)oxy]benzoate 2 trifluoroacetate] | 0.5 | 92 | – | – | – | – |
| CN(CC(=O)Oc1ccc(C(=N)N2CCCC2)cc1)c1cccc(C(=N)N)c1 [compound of Ex. 1, 4-[imino(pyrrolidin-1-yl)methyl]phenyl N-{3-[amino(imino)methyl]phenyl}-N-methylglycinate 2 trifluoroacetate] | – | – | > 100 | 5.48 | 45.7 | – |
| N=C(N)c1cccc(N2CCCC[C@H]2C(=O)Oc2ccc(C(=N)N3CCCC3)cc2)c1 [compound of Ex. 16, 4-[imino(pyrrolidin-1-yl)methyl]phenyl (2S)-1-{3-[amino(imino)methyl]phenyl}piperidine-2-carboxylate 2 trifluoroacetate] | – | – | 70.8 | 6.85 | 15.1 | – |
| N=C(N)c1cccc(N2CCCC[C@@H]2C(=O)Oc2ccc(C(=N)N3CCCC3)cc2)c1 [compound of Ex. 18, 4-[imino(pyrrolidin-1-yl)methyl]phenyl (2R)-1-{3-[amino(imino)methyl]phenyl}piperidine-2-carboxylate 2 trifluoroacetate] | – | – | 2.95 | 6.64 | 4.57 | – |
| N=C(N)c1cccc(N2CCC[C@@H]2C(=O)Oc2ccc(C(=N)N3CCCC3)cc2)c1 [compound of Ex. 9, 4-[imino(pyrrolidin-1-yl)methyl]phenyl 1-{3-[amino(imino)methyl]phenyl}-D-prolinate 2 trifluoroacetate] | – | – | 0.692 | 6.69 | 20 | – |
| CC(=N)N1CCC(Oc2ccc(OC(=O)[C@H]3CCCN3c3cccc(C(=N)N)c3)cc2)CC1 [compound of Ex. 11, 4-[(1-ethanimidoylpiperidin-4-yl)oxy]phenyl 1-{3-[amino(imino)methyl]phenyl}-D-prolinate 2 trifluoroacetate] | < 1 | 85 | 0.347 | 6.25 | 105 | – |
| C[C@@H](C(=O)Oc1ccc(C(=N)N2CCCC2)cc1)N(C)c1cccc(C(=N)N)c1 [compound of Ex. 4, 4-[imino(pyrrolidin-1-yl)methyl]phenyl N-{3-[amino(imino)methyl]phenyl}-N-methyl-L-alaninate 2 trifluoroacetate] | 4 | 57 | 83.2 | – | 13.5 | 6.89 |
| CC(=N)N1CCC(Oc2ccc(OC(=O)[C@@H]3CCCCN3c3cccc(C(=N)N)c3)cc2)CC1 [compound of Ex. 17, 4-[(1-ethanimidoylpiperidin-4-yl)oxy]phenyl (2S)-1-{3-[amino(imino)methyl]phenyl}piperidine-2-carboxylate 2 trifluoroacetate] | – | – | 53.7 | 6.33 | 40.7 | – |
| N=C(N)c1cccc(N2CCC[C@H]2COC(=O)c2ccc(C(=N)N3CCCC3)cc2)c1 [compound of Ex. 22, ((2S)-1-{3-[amino(imino)methyl]phenyl}pyrrolidin-2-yl)methyl 4-[imino(pyrrolidin-1-yl)methyl]benzoate 2 trifluoroacetate] | < 1 | 80 | > 100 | 6.03 | 398 | – |
| N=C(N)c1cccc(N2CCC[C@H]2C(=O)Oc2ccc(C(=N)N3CCCC3)cc2)c1 [compound of Ex. 8, 4-[imino(pyrrolidin-1-yl)methyl]phenyl 1-{3-[amino(imino)methyl]phenyl}-L-prolinate 2 trifluoroacetate] | – | – | 25.7 | 5.66 | 282 | – |
| CC(C)C[C@@H](C(=O)Oc1ccc(C(=N)N2CCCC2)cc1)N(C)c1cccc(C(=N)N)c1 [compound of Ex. 29, 4-[imino(pyrrolidin-1-yl)methyl]phenyl N-{3-[amino(imino)methyl]phenyl}-N-methyl-L-leucinate 2 trifluoroacetate] | – | – | 25.7 | – | 11.2 | 6.72 |
| N=C(N)c1cccc(N2C[C@H](OCc3ccccc3)C[C@H]2C(=O)Oc2ccc(C(=N)N3CCCC3)cc2)c1 [compound of Ex. 13, 4-[imino(pyrrolidin-1-yl)methyl]phenyl (4R)-1-{3-[amino(imino)methyl]phenyl}-4-(benzyloxy)-L-prolinate 2 trifluoroacetate] | 8.2 | 86 | 0.288 | 5.59 | 339 | – |
| C[C@H](C(=O)Oc1ccc(C(=N)N2CCCC2)cc1)N(C)c1cccc(C(=N)N)c1 [compound of Ex. 5, 4-[imino(pyrrolidin-1-yl)methyl]phenyl N-{3-[amino(imino)methyl]phenyl}-N-methyl-D-alaninate 2 trifluoroacetate] | 3.7 | 64 | 38 | – | 20 | 6.26 |
